Source: patent publication US11180479B2 (HAPLOGEN GmbH, priority 2017, dated 2021)
pEC50, pIC50: −log10 of the molar value.

Columns and labels:
PLA2G16 = molecular target: T1, PLA2G16 (Homo sapiens, UniProt P53816); experiment: Enzyme activity assay for PLA2G16 (Red/Green BODIPY PC-A2 fluorescence); format: biochemical; details: His-tagged PLA2G16, 4 min pre-incubation, compound 2 nM to 50 μM; first symbol in parentheses
T1 construct: Hexa-His (N); made in house; host or cells: E. coli BL21(DE3)
T1 sequence (P53816 1-162): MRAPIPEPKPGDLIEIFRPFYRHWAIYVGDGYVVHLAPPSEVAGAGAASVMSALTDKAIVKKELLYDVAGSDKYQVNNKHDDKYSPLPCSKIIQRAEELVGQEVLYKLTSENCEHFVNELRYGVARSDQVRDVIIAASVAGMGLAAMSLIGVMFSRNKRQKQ
Description: Purification and Enzyme Activity Assay for PLA2G16
A cDNA for PLA2G16 (NM_007069) was custom-synthesized by Genscript (Piscataway, USA) and inserted into a pET-based bacterial expression vector [Moffatt, B. A. and Studier, F. W. (1986) J. Mol. Biol. 189, 113-130; Rosenberg, A. H., Lade, B. N., Chui, D., Lin, S., Dunn, J. J., and Studier, F. W. (1987) Gene 56, 125-135], enabling the expression of N-terminally Hexa-His-tagged PLA2G16. E. coli BL21(DE3) (Agilent) were transformed with pET-His-PLA2G16 according to the manufacturer's instructions and plated on Carbenicillin-containing agar plates (final concentration: 100 μg/mL). A single clone was inoculated in 100 mL LB medium supplemented with 100 μg/mL Carbenicillin and the inoculated culture was grown at 37° C. overnight in a rotary shaker. On the next day, the bacterial culture was diluted in LB medium supplemented with 100 μg/mL Carbenicillin (30 mL overnight culture in 800 mL total culture volume). Bacteria were grown at 37° C. until the OD600 reached 0.6. Gene expression was induced by addition of 1 mM isopropyl-β-D-thiogalactopyranosid (IPTG) for 2 h at 18° C. Subsequently, bacteria were harvested by centrifugation (15 min; 10,000×g; 4° C.) and frozen at −80° C. The bacterial pellet was resuspended in Buffer A (50 mM Tris/HCl pH 7.5, 500 mM NaCl, 5% glycerol, 5 mM β-Mercaptoethanol and 1 mM PMSF) and lysed by addition of 1 mg/mL lysozyme (Sigma Aldrich) and 100 μg/mL DNasel-(Roche). The sample was incubated at 30° C. for 30 min to allow lysis to occur. Then, the lysate was cleared by centrifugation (15,000×g, 15 min, 4° C.) and incubated with 1.5 mL Ni-NTA agarose suspension (Qiagen) for 60 min at 4° C. The Ni-NTA agarose was washed with 10 mL Buffer A. Bound protein was eluted by applying a manual gradient of Buffer A supplemented with increasing concentrations of imidazole (Sigma Aldrich; 25/50/75/100/250 mM). Purified fractions were analyzed by SDS-PAGE followed by Coomassie staining to assess the purity.
Activity of the protein was assessed as follows:
Red/Green BODIPY® PC-A2 (Invitrogen, 1 mM in DMSO) was mixed with equal volumes of 1,2-Dioleoyl-sn-glycero-3-phosphocholine (DOPC; Sigma Aldrich, 10 mM in Ethanol) and 1,2-Dioleoyl-sn-glycero-3-phospho-rac-(1-glycerol) (DOPG; Sigma Aldrich, 10 mM in Ethanol) and 0.5 volumes of Cholesterol (CHOL; Sigma Aldrich, 10 mM in Ethanol) and vortexed for 5 s. The mixture (Red/Green BODIPY® PC-A2/DOPC/DOPG/CHOL) was diluted 1:91.4 in activity assay buffer (50 mM Tris/HCl pH 8.5, 100 mM NaCl) using a small-orifice pipette tip under constant vortexing. In the following, this preparation will be referred to as the “substrate solution”.
In order to evaluate their inhibitory potential, compounds were dissolved at 10 mM concentration in DMSO and directly spotted into assay plates (Corning, Cat. No. 3576) using acoustic liquid transfer (Labcyte Echo 525). Each compound was spotted at increasing concentrations, ranging from 2 nM to 50 μM (concentration in the final assay volume). 50 μl of PLA2G16 enzyme solution (diluted in activity buffer, supplemented with 5 mM L-Glutathione; Sigma Aldrich) was pre-incubated with compounds for 4 min., followed by addition of 50 μl of substrate solution. Fluorescence was recorded immediately after substrate addition for a total time of 10 min. using a SpectraMax M5 multimode reader (Excitation wavelength: 480 nm, emission wavelength: 530 nm). The relative increase of fluorescence over time is referred to as the enzyme activity. Half-maximal inhibitory concentrations (IC50) were derived by non-linear regression analysis using the drc package in R (R Development. Core Team, 2005).

[1] = system: picornaviruses (CVB1, HRV-A2, HRV-A23, EV-68); experiment: Anti-picornavirus cytopathic effect (CPE) reduction assay on HeLa H1 cells; format: cell-based; details: 48 h, category from averaging EC50 values of four picornaviruses (CVB1, HRV-A2, HRV-A23, EV68), second symbol in parentheses
Method: Anti-Picornavirus Assay in Mammalian Cell Culture
The antiviral activity of selected compounds was tested using a cytopathic effect (CPE) reduction assay on HeLa H1 cells (ATCC CRL-1958). Briefly, cells were seeded in 96-well dishes (2×10^4 cells/well) in DMEM medium (Life technologies) supplemented with 10% FBS and PenStrep solution (100 U/mL Penicillin and 100 μg/mL streptomycin) and incubated at 37° C., 5% CO2 overnight. The next day, cells were pre-treated with serial dilutions of the compound in DMEM medium supplemented with 2% FBS and PenStrep for 2 h at 37° C., 5% CO2. Next, cells were infected with virus (CVB1, HRV-A2, HRV-A23, EV-68) at an multiplicity of infection (MOI) which results in a complete virus-induced CPE within 2 days in control wells (infected and vehicle-treated). After 48 h, supernatants were aspirated and 50 μl/well of CellTiterBlue reagent (Promega) diluted 1:5 in DMEM+2% FBS, was added to the cells. Plates were returned to the incubator and allowed to develop for 1.5 h. After that, plates were equilibrated to RT and subsequently, fluorescence was recorded (Excitation wavelength: 560 nm; emission wavelength: 590 nm) using a SpectraMax M5 multimode plate reader. Viability of cells was calculated according to the formula: V=(RFUCpd−RFUVeh/(RFUM−RFUVeh), where RFUCpd refers to infected and compound-treated cells, RFUVeh to infected and vehicle-treated cells and RFUM to uninfected and vehicle treated cells. Half-maximal effective concentrations (EC50) were calculated by non-linear regression analysis using the drc package in R (R Development. Core Team, 2005). EC50 categories as presented in Table 2 were calculated by averaging the EC50 values from four picornaviruses (CVB1, HRV-A2, HRV-A23, EV68).

| pIC50 (PLA2G16) | pEC50 [1] | SMILES |
| --- | --- | --- |
| > 6.00 | – | NC(=O)c1ccc(CN2C[C@H](C(=O)C(=O)NC3CC3)[C@@H](Cc3ccccc3)C2=O)cc1 (racemic) |
| > 6.00 | > 6.00 | O=C(NCC1CC1)C(=O)[C@H]1CNC(=O)[C@@H]1Cc1ccccc1 (racemic) [FP-1, Rac-2-[(3R,4R)-4-benzyl-5-oxopyrrolidin-3-yl]-N-(cyclopropylmethyl)-2-oxoacetamide] |
| > 6.00 | > 6.00 | O=C(NC1CC1)C(=O)[C@H]1CNC(=O)[C@@H]1Cc1ccccc1 (racemic) [FP-2, Rac-2-[(3R,4R)-4-benzyl-5-oxopyrrolidin-3-yl]-N-cyclopropyl-2-oxoacetamide] |
| > 6.00 | > 6.00 | CCNC(=O)C(=O)[C@H]1CNC(=O)[C@@H]1Cc1ccccc1 (racemic) [FP-3, Rac-2-[(3R,4R)-4-benzyl-5-oxopyrrolidin-3-yl]-N-ethyl-2-oxoacetamide] |
| > 6.00 | > 6.00 | O=C(NCC(F)F)C(=O)[C@H]1CNC(=O)[C@@H]1Cc1ccccc1 (racemic) [FP-4, Rac-2-[(3R,4R)-4-benzyl-5-oxopyrrolidin-3-yl]-N-(2,2-difluoroethyl)-2-oxoacetamide] |
| > 6.00 | > 6.00 | CC(C)NC(=O)C(=O)[C@H]1CNC(=O)[C@@H]1Cc1ccccc1 (racemic) [FP-5, Rac-2-[(3R,4R)-4-benzyl-5-oxopyrrolidin-3-yl]-2-oxo-N-(propan-2-yl)acetamide] |
| > 6.00 | 5.00 to 6.00 | N#CCCNC(=O)C(=O)[C@H]1CNC(=O)[C@@H]1Cc1ccccc1 (racemic) [FP-6, Rac-2-[(3R,4R)-4-benzyl-5-oxopyrrolidin-3-yl]-N-(2-cyanoethyl)-2-oxoacetamide] |
| > 6.00 | 5.00 to 6.00 | O=C(NC1CCOCC1)C(=O)[C@H]1CNC(=O)[C@@H]1Cc1ccccc1 (racemic) [FP-7, Rac-2-[(3R,4R)-4-benzyl-5-oxopyrrolidin-3-yl]-N-(oxan-4-yl)-2-oxoacetamide] |
| > 6.00 | 5.00 to 6.00 | CC(C)ONC(=O)C(=O)[C@H]1CNC(=O)[C@@H]1Cc1ccccc1 (racemic) [FP-8, Rac-2-[(3R,4R)-4-benzyl-5-oxopyrrolidin-3-yl]-2-oxo-N-(propan-2-yloxy)acetamide] |
| > 6.00 | 5.00 to 6.00 | O=C(NOC1CCCCC1)C(=O)[C@H]1CNC(=O)[C@@H]1Cc1ccccc1 (racemic) [FP-9, Rac-2-[(3R,4R)-4-benzyl-5-oxopyrrolidin-3-yl]-N-(cyclohexyloxy)-2-oxoacetamide] |
| > 6.00 | > 6.00 | O=C(NCC1CC1)C(=O)[C@H]1CNC(=O)[C@@H]1c1ccccc1 (racemic) [FP-10, Rac-N-(cyclopropylmethyl)-2-oxo-2-[(3R,4S)-5-oxo-4-phenylpyrrolidin-3-yl]acetamide] |
| > 6.00 | 5.00 to 6.00 | CC(F)(F)CNC(=O)C(=O)[C@H]1CNC(=O)[C@@H]1c1ccccc1 (racemic) [FP-11, Rac-N-(2,2-difluoropropyl)-2-oxo-2-[(3R,4S)-5-oxo-4-phenylpyrrolidin-3-yl]acetamide] |
| > 6.00 | > 6.00 | CC(F)(F)CNC(=O)C(=O)[C@H]1CNC(=O)[C@@H]1C1CCCCC1 (racemic) [FP-12, Rac-2-[(3R,4R)-4-cyclohexyl-5-oxopyrrolidin-3-yl]-N-(2,2-difluoropropyl)-2-oxoacetamide] |
| > 6.00 | > 6.00 | CC(C)CNC(=O)C(=O)[C@H]1CNC(=O)[C@@H]1c1ccccc1 (racemic) [FP-13, Rac-N-(2-methylpropyl)-2-oxo-2-[(3R,4S)-5-oxo-4-phenylpyrrolidin-3-yl]acetamide] |
| > 6.00 | 5.00 to 6.00 | O=C(NC1CC1)C(=O)[C@H]1CNC(=O)[C@@H]1c1ccccc1 (racemic) [FP-14, Rac-N-cyclopropyl-2-oxo-2-[(3R,4S)-5-oxo-4-phenylpyrrolidin-3-yl]acetamide] |
| > 6.00 | 5.00 to 6.00 | CCNC(=O)C(=O)[C@H]1CNC(=O)[C@@H]1c1ccccc1 (racemic) [FP-15, Rac-N-ethyl-2-oxo-2-[(3R,4S)-5-oxo-4-phenylpyrrolidin-3-yl]acetamide] |
| > 6.00 | 5.00 to 6.00 | O=C(NC1CC(F)(F)C1)C(=O)[C@H]1CNC(=O)[C@@H]1c1ccccc1 (racemic) [FP-16, Rac-N-(3,3-difluorocyclobutyl)-2-oxo-2-[(3R,4S)-5-oxo-4-phenylpyrrolidin-3-yl]acetamide] |
| > 6.00 | > 6.00 | CC(C)(C)NC(=O)C(=O)[C@H]1CNC(=O)[C@@H]1c1ccccc1 (racemic) [FP-17, Rac-N-tert-butyl-2-oxo-2-[(3R,4S)-5-oxo-4-phenylpyrrolidin-3-yl]acetamide] |
| > 6.00 | 5.00 to 6.00 | CCCNC(=O)C(=O)[C@H]1CNC(=O)[C@@H]1c1ccccc1 (racemic) [FP-18, Rac-2-oxo-2-[(3R,4S)-5-oxo-4-phenylpyrrolidin-3-yl]-N-propylacetamide] |
| > 6.00 | > 6.00 | O=C(NC1CCC1)C(=O)[C@H]1CNC(=O)[C@@H]1c1ccccc1 (racemic) [FP-19, Rac-N-cyclobutyl-2-oxo-2-[(3R,4S)-5-oxo-4-phenylpyrrolidin-3-yl]acetamide] |
| > 6.00 | 5.00 to 6.00 | CC1(NC(=O)C(=O)[C@H]2CNC(=O)[C@@H]2c2ccccc2)CC1 (racemic) [FP-20, Rac-N-(1-methylcyclopropyl)-2-oxo-2-[(3R,4S)-5-oxo-4-phenylpyrrolidin-3-yl]acetamide] |
| > 6.00 | > 6.00 | O=C(NCC1CCC1)C(=O)[C@H]1CNC(=O)[C@@H]1c1ccccc1 (racemic) [FP-21, Rac-N-(cyclobutylmethyl)-2-oxo-2-[(3R,4S)-5-oxo-4-phenylpyrrolidin-3-yl]acetamide] |
